From PubChem BioAssay AID179 (DTP/NCI, 2004)
The source made the active and inactive calls.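 Rule for the calls: active = compounds giving half or more protection of infected cells from virus-caused growth loss, again on retest; inactive = the rest.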

Tested on: CEM cells HIV-1 protection, formazan growth assay
Experiment: NCI AIDS Antiviral Assay
Conditions: for IC50: measured here: growth of uninfected CEM cells
In short: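 Protection of CEM cells against HIV-1 measured as cell growth via soluble formazan read-out, with five concentrations tested on both infected and uninfected cells; failure to protect may reflect toxicity.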

SMILES | EC50 | IC50 | outcome
CCc1cccc(CC)c1N1C(=O)C2=C(SCCCS2)C1=O | > 44.7 µM | 24 µM | 
C=CCC(CCC(C)=O)(C(=O)OCC)C(=O)OCC | > 200 µM | > 200 µM | 
OC1CCC(O)[C@H]2[C@@H]1[C@@H]1S[C@H]2c2ccccc21 (some centres not stated) | > 200 µM | > 200 µM | 
CC(C)c1cccc(C(C)C)c1N=C(N)C#N | > 195 µM | 93.3 µM | 
CC(C)(C)c1cc(C2NC(=O)NC2=O)cc(C(C)(C)C)c1O (configuration not stated) | > 20 µM | > 20 µM | 
NC(=O)NC(=NCc1ccccc1)NCc1ccccc1 | > 776 µM | 107 µM | 
CCOc1ccccc1NC(=O)CC1C(=O)Nc2ccccc2S1=O (configuration not stated) | > 38 µM | > 38 µM | 
COc1ccc(CNc2cnc3ccc(N)cc3n2)cc1OC | > 115 µM | > 115 µM | 
COc1ccc(C2Oc3cc(OC)ccc3C(=O)C2c2ccccc2)cc1 (configuration not stated) | > 200 µM | 31.6 µM | 
O=c1cc(CBr)c2ccc(O)cc2o1 | > 200 µM | 102 µM | 
NC(=O)NN=C1Cc2ccccc2C1 | > 200 µM | > 200 µM | 
CCO/C=C1\N=C(C(Cl)c2ccccc2)OC1=O (configuration not stated) | > 135 µM | > 135 µM | 
CC(=O)/C(=C\C1=CCCO1)C(=O)Nc1ccccc1C | > 26.3 µM | > 26.3 µM | 
CCOC(=O)/C(=C\c1ccc(F)cc1)C(C)=O | > 398 µM | 79.4 µM | 
CC(Cc1ccc(O)c(O)c1)C(C)Cc1ccc(O)c(O)c1 (configuration not stated) | > 200 µM | 8.91 µM | 
OC1(c2ccccc2)c2ccccc2CCC1Br (configuration not stated) | > 200 µM | 56.2 µM | 
Cc1n[n+](CC(=O)c2ccccc2)c2sc(N)nn12 | > 200 µM | 132 µM | 
COC(=O)c1cc(CC2Cc3cc4c(cc3C2)CCC4)cc2c1CCC2 | > 200 µM | > 200 µM | 
O=C1C(=O)N(c2cccc(C(F)(F)F)c2)C(=O)C(=O)C1c1nc2ccccc2s1 | > 44.7 µM | > 44.7 µM | 
CN/C=C(/c1ccc(OC)cc1)C(O)c1ccc(OC)c(OC)c1 (configuration not stated) | > 759 µM | 282 µM | 
C/C(CC(=O)CCC(=O)Nc1cccc(C(F)(F)F)c1)=N\NC(=O)NN | > 10 µM | > 10 µM | 
Cc1c2c(C#N)nccc2c(C)c2c1c1ccccc1n2Cc1ccccc1 |  |  | inactive
Cc1cccc2c(N)c3cccc(C(=O)NCC[N+](C)(C)Cc4ccc([N+](=O)[O-])s4)c3nc12 | > 2 µM | 0.251 µM | 

SMILES | EC50 | IC50 | outcome
N#Cc1c(N)c(C(=O)Nc2ccc(Cl)cc2)n2c1CCC2 | > 200 µM | > 200 µM | 
Cc1cc(-n2nnnc2-c2ccc([N+](=O)[O-])cc2)no1 | > 5.01 µM | 4.37 µM | 
[N-]=[N+]=Nc1ccccc1C(=O)N1C(=O)c2ccccc2C(=O)N(C(=O)c2ccccc2N=[N+]=[N-])c2ccccc21 | > 200 µM | 72.4 µM | 
CC(=O)O[C@@H]1CN(S(=O)(=O)c2ccc(C)cc2)C[C@@H]1C1CCCCC1 | > 200 µM | 35.5 µM | 
CC(=O)Nc1ccc(-n2[nH]c(=O)n(C)c2=O)cc1 | > 100 µM | > 100 µM | 
CCN(CC)C(=O)CCn1cc(F)c(=O)[nH]c1=O | > 977 µM | > 977 µM | 
O=C1NC2CC=CCC12 (configuration not stated) | > 2040 µM | > 2040 µM | 
CC(=O)Nc1nnc2c3ccccc3n(C(C)=O)c2n1 | > 200 µM | 3.55 µM | 
CCC(C)[C@@H](NCc1ccccc1)[C@H](OCc1ccccc1)[C@@H]1COC(C)(C)O1 (some centres not stated) | > 200 µM | 22.4 µM | 
O=C(COc1ccccc1Cl)N1N=C(c2ccc(Cl)cc2)CC1(O)c1ccccc1 (configuration not stated) | > 4.57 µM | > 4.57 µM | 
C[C@H](c1ccccc1)N1C(=O)[C@@H](OCc2ccccc2)[C@H]1[C@H](COC(=O)COCc1ccccc1)OCc1ccccc1 | > 200 µM | > 200 µM | 
C=C(CBr)CCCOCc1ccccc1 | > 200 µM | 105 µM | 
Cc1ccc(C2=Nn3c(nc4sc5c(c4c3=O)CCCC5)SC2)cc1 | > 200 µM | > 200 µM | 
COc1ccc2c(c1)C(O)NC(=O)O2 (configuration not stated) | > 200 µM | 49 µM | 
CCOC(=O)/C=C1\c2ccccc2C(=O)N1CC(=O)OCC |  |  | inactive
CN(C)c1ccc(/C=c2\[nH]c(=O)/c(=C\c3ccc(N(C)C)cc3)[nH]c2=O)cc1 | > 50.1 µM | > 50.1 µM | 
N#C/C(=C\c1cc(O)c(O)c(O)c1)C(N)=O | > 200 µM | 91.2 µM | 
O=C(CCc1ccc(O)c(O)c1)NCCc1cc(O)cc(O)c1 |  |  | inactive
CC(C)(C)OC(=O)NCC(CNC(=O)OC(C)(C)C)C(N)=O | > 407 µM | > 407 µM | 
CCc1c(C)c(C#N)c(=S)n(C2OC(COC(C)=O)C(OC(C)=O)C(OC(C)=O)C2OC(C)=O)c1C (configuration not stated) | > 200 µM | > 200 µM | 
CC(=O)CCC#Cc1ccccc1C(=O)C(C)=[N+]=[N-] | > 50.1 µM | > 50.1 µM | 
O=C1Nc2ccccc2Sc2ccccc21 | 93.3 µM | 115 µM | 
O=S1(=O)CC2(N3CCOCC3)CCCCC21 (configuration not stated) | > 1020 µM | > 1020 µM | 

SMILES | EC50 | IC50 | outcome
CCC(=O)C(CCN1CCC(n2c(=O)[nH]c3ccccc32)CC1)(c1ccccc1)c1ccccc1 | > 200 µM | 19.1 µM | 
O=C1CSc2ccncc2N1 | > 1510 µM | > 1510 µM | 
COP1(=O)OC(C)=C(C)c2cccn21 (configuration not stated) | > 60.3 µM | > 60.3 µM | 
N#Cc1c(-c2ccc(Cl)cc2)[nH]c(=O)n(C2OC(CO)C(O)C(O)C2O)c1=O (configuration not stated) | > 200 µM | > 200 µM | 
CC1(C)N=C(N)N=C(N)N1c1ccc(CCCCc2ccc(S(=O)(=O)F)cc2Cl)c(Cl)c1 | > 107 µM | 1.41 µM | 
COc1cc(OC)c2c(O)c(S(=O)(=O)c3ccc(C)cc3)c(=O)oc2c1 | > 200 µM | > 200 µM | 
COc1cc(/C=C(\C#N)c2ccc(Cl)cc2)ccc1OCc1ccccc1 | > 200 µM | > 200 µM | 
Oc1ccc2c(c1)OCC1c3cc4c(cc3OC21)OCO4 (configuration not stated) |  |  | inactive
CCOC(=O)c1c(SC(=O)c2cc(OC)c(OC)c(OC)c2)n(-c2ccccc2)c(=S)n(-c2ccccc2)c1=O | > 200 µM | 32.4 µM | 
CCN(CC)C(=O)Cn1c(C)cc2ccccc21 | > 200 µM | > 200 µM | 
CC(C)(C)NC(NC(C)(C)C)=C(/C=C(/Cl)[N+](=O)[O-])[N+](=O)[O-] | > 200 µM | 162 µM | 
CC(=O)O[C@H]1[C@H](OC(C)=O)[C@@H](CN=[N+]=[N-])OCO[C@@H]1CN=[N+]=[N-] |  |  | inactive
Cc1ccc2c(c1C)C(=O)/C(=C/c1ccccc1C(=O)O)C2 | 38 µM | 93.3 µM | 
CC(=O)Oc1cc(S(=O)(=O)Nc2n[nH]c(N)n2)c(S)cc1Cl | > 200 µM | > 200 µM | 
O=C(O)CN(CCN(CC(=O)O)CC(=O)O)CC(=O)O.[Ni+2] | > 200 µM | > 200 µM | 
Cc1ccc2c(c1)[nH]c(=S)n2C=C1C(=O)NC(=O)NC1=O | > 100 µM | > 100 µM | 
CC12CCC(C(=Nc3ccc([N+](=O)[O-])cc3)C1=O)C2(C)C (configuration not stated) | > 200 µM | 35.5 µM | 
CC(=O)OCC(OC(C)=O)C(OC(C)=O)C(OC(C)=O)C(=O)CNn1c(-c2ccccc2Cl)nc2ccc(Br)cc2c1=O (configuration not stated) |  |  | inactive
CCOC(=O)c1c(NC(=O)OC)c(C#N)c2n1CCCCC2 | > 200 µM | > 200 µM | 
O=C1SCC(O)=C1/C=N/Nc1nc2ccccc2o1 | > 50.1 µM | 2.63 µM | 
CCOC(OC1=CCCC1)C(C)[Se]c1ccccc1 (configuration not stated) | > 22.4 µM | > 22.4 µM | 
Cc1cccc2c1Oc1ccccc1C2NC(=O)CCN(C)C (configuration not stated) | > 200 µM | 38 µM | 
Cc1nc2cc(F)c(F)cc2[nH]c1=O | > 200 µM | 174 µM | 

SMILES | EC50 | IC50 | outcome
CCOC(=O)/C(=C\c1cn(C(C)=O)c2ccccc12)P(C)(=O)OCC (configuration not stated) | > 200 µM | 55 µM | 
O=C1OCCOCCOCCOCCOC(=O)c2cccc1c2 | > 155 µM | > 155 µM | 
O=C1c2ccccc2CCCCCCCCCCC12OCCCO2 | > 200 µM | > 200 µM | 
Nc1cccnc1NCC1(CO)CCCC1 | > 200 µM | > 200 µM | 
COC(=O)[C@H]1ON2O[C@@H](O[C@H]3CCCC[C@@H]3C(C)(C)c3ccccc3)C[C@@H]3CC[C@H]1[C@@]32C | > 200 µM | > 200 µM | 
COc1ccc(NC(=O)CC(=O)n2nc(C)c(N=Nc3cccc(C)c3)c2C)cc1 | > 200 µM | > 200 µM | 
NC(N)=NCCCC(NC(=O)OCCCCCCn1ccc(N)nc1=O)C(=O)O (configuration not stated) | > 200 µM | > 200 µM | 
CCCCCCCCCCCCCCCC(=O)OC1C(O)C(O)C(O)C(O)C12CO2 (configuration not stated) | > 20 µM | 7.08 µM | 
Cc1cc(S(=O)(=O)Nc2nnc3cc(C(F)(F)F)cc(C)n23)c(S)cc1Cl | 50.1 µM | 132 µM | 
CN(O)C(=O)Cc1ccc(OCc2cccc(Cl)c2)cc1 | > 200 µM | > 200 µM | 
CC1CC2C3CC(F)C4=CC(=O)C=CC4(C)C3(F)C(O)CC2(C)C1(O)C(=O)COC(=O)C(C)(C)C (configuration not stated) |  |  | inactive
COc1cccc(N/C(C)=C2/CCOC2=O)c1 | > 200 µM | 105 µM | 
COc1ccc(/C(C)=N/NC(=O)c2ccncc2)c(OC)c1 | > 417 µM | 363 µM | 
COc1ccc(N2C(=O)CC(C3CC(C(C)(C)C)CCC3=O)C2=O)cc1 (configuration not stated) | > 200 µM | > 200 µM | 
Cc1ccc(S(=O)(=O)Nn2c3c(cc(C#N)c2=O)CCC3)cc1 | > 200 µM | > 200 µM | 
O=C1c2cc3c(cc2CC12Cc1cc4c(cc1C2=O)CCC4)CCC3 | 158 µM | > 200 µM | 
CCCC[P+](c1ccccc1)(c1ccccc1)c1ccccc1 | > 200 µM | 2.57 µM | 
CCOC(=O)CC(C)C1(C=O)CCCCC1=O (configuration not stated) | > 759 µM | > 759 µM | 
O=C(O)[C@H](NS(=O)(=O)c1ccc(F)cc1)c1ccccc1 |  |  | inactive
Cn1cc(NC(=O)c2cc(NC(=O)c3cc(NC(=O)/C=C/C(=O)Nc4cn(C)c(C(=O)Nc5cn(C)c(C(=O)Nc6cn(C)c(C(=O)NCCC(=N)N)n6)n5)n4)cn3C)cn2C)cc1C(=O)NCCC(=N)N | > 7.76 µM | 1.45 µM | 
O=C1c2ccccc2C2(O)Nc3cc(O)ccc3C12O (configuration not stated) | > 933 µM | 661 µM | 
